# Measured values reported in patent US12090149B2, “SMAD3 inhibitors” (Moexa Pharmaceuticals Limited, priority 2018, dated 2024).
# Several values for one entry are separate records, joined by “and”; a condition that tells them apart may be missing. Equal entries are not always repeated. Entries after “also recorded” stand apart in the source; their conditions may differ.
# How the values were obtained:
# [1] = Body weight of tumor bearing mice in the B16-F10 syngeneic model; format: in vivo, C57BL/6 mice
# Protocol: (§1) • Animal species and strain: C57BL/6 mice • History of treatment: Naive • Sex, age and weight: Female, 6-8 weeks • Breeder/supplier: Shanghai SLAC Laboratory Animal Co. Ltd • Adaptation: At least 7 days • Room: SPF Room • Room temperature: 20-26° C. • Room relative humidity: 40-70% • Light cycle: Fluorescent light for 12-hour light (08:00-20:00) and 12-hour dark • Animal hosting: 2-5 mice/cage each group • Food: Free access to food • Water: Free access to water (municipal tap water filtered by reverse osmosis or high-pressure sterilizer)
# (§2) B16-F10 cells (3×10^5 in 100 μL of serum-free medium) were inoculated to each of C57BL/6 mice via s.c. under anesthesia by 3-4% isoflurane. Each group contains 15 mice.
# (§3) When average tumor volume reached 35-60 mm^3, 15 mice were randomized into group 6. The day of inoculation was denoted as day 0.
# Body weight was measured on Day 4, 5, 6, 8, 11, 13, 15 and 18 after inoculation. When required, body weight was measured daily.
# (§4) Results were expressed as mean±S.E.M. Comparisons between two groups were made by Dunnett's multi-comparison test, p<0.05 were considered as significant.
# B16-F10 syngeneic model = assay: Subcutaneous B16-F10 syngeneic model, tumor growth; format: in vivo, C57BL/6 mice
# Protocol: In order to evaluate the in vivo efficacy of SIS3 and novel compounds of the present invention, a study has been conducted in treatment of the subcutaneous B16-F10 syngeneic models.
# as §1
# B16-F10 cell was maintained at 37° C. under 5% CO2 in DMEM medium supplemented with 10% FBS and were subsequently cultured within 10 passages before inoculated into the mice.
# as §2, §3
# Tumor dimensions were measured on Day 4, 5, 6, 8, 11, 13, 15 and 18, after inoculation in 2 dimensions with calipers.
# When required, tumor volume was measured daily. The tumor volume (V) was calculated as follows: V=(length×width^2)/2.
# The individual relative tumor volume (RTV) was calculated as follows: RTV=Vt/V0, where Vt was the volume on each day, and V0 was the volume at the beginning of the treatment.
# Tumor growth inhibition (TGI), TGI=(1−(Ti−T0)/(Ci−C0))×100%; Ti and Ci as the mean tumor volumes of the treatment and control groups on the measurement day; T0 and C0 as the mean tumor volumes of the treatment and control groups on day 0
# as §4
# [2] = Aqueous solubility assay (shake-flask, LC/MS/MS); format: physicochemical; conditions: 25° C., 24 hours, SIS3 hydrochloride salt, MO-00005 free base
# Protocol: Poorly soluble compounds can dramatically reduce productivity in drug discovery and development. Solubility assays involve assessment of kinetic solubility (from DMSO stock solution) using a shake-flask technique in a plate format and LC/MS/MS analysis.
# • Analytical Column: YMC ODS-AM S-3 120A, 3×50 mm column with Guard. • Flow Rate: 500 ul/min • Mobil Phase: Isocratic 50% acetonitrile: 50% 20 mM Ammonium Acetate pH 4. Back Pressure: 1400 psi • Column Temperature: Ambient, • Autosampler Setting: Injection Volume: 5 ul, Loop Volume: 100 ul, Tray Temperature: 4° C. • Needle wash: Vial position 100. Needle wash solution: 50% Methanol water
# • Component Mass Molarity • Sodium bicarbonate (mw: 84 g/mol) 0.11628 g 0.0461 M • Sodium carbonate (anhydrous) (mw: 106 g/mol) 0.17127 g 0.0539 M • Tris Buffer pH 7.7 (100 mL) • Add 0.363 g of tris to 30 mL water. Check pH at room temperature the pH should be 7.7 with acetic acid. • Acetate Buffer pH 3.6 (30 mL) • Component Mass Molarity • Sodium Acetate (anhydrous) (mw: 82 g/mol) 0.01188 g 0.0048 M • Acetic Acid (mw: 60.05 g/mol) 0.17145 g 0.0952 M (0.17145 g=[…])
# Then run all samples at this dilution. • (xi) Run samples in duplicate and estimate aqueous solubility.
# As such, it may be expected that the hydrochloride salt will have better solubility in unbuffered aqueous solutions. There the thermodynamic equilibrium dissolution concentrations of both compounds were determined also in buffered solutions at pH 4, 7.7, and 10.4 in addition to unbuffered water.
# CYP2D6 = target: T1, CYP2D6 (Homo sapiens, UniProt P10635); assay: Cytochrome P450 inhibition assay, human liver microsomes, CYP2D6; format: in vitro ADME; conditions: 10 uM
# T1 construct: CONSTRUCT DETAILS: Microsomes; from tissue; host or cells: human liver microsomes
# [3] = 10 mg/kg q.d. * 3W i.p., Day 11
# [4] = 10 mg/kg q.d. * 3W i.p., Day 13
# [5] = 10 mg/kg q.d. * 3W i.p., Day 15
# [6] = 10 mg/kg q.d. * 3W i.p., Day 18
# [7] = 30 mg/kg q.d. * 3W i.p., Day 11
# [8] = 30 mg/kg q.d. * 3W i.p., Day 13
# [9] = 30 mg/kg q.d. * 3W i.p., Day 15
# [10] = 30 mg/kg q.d. * 3W i.p., Day 18
# [11] = single agent, i.p. QD*3 weeks, SIS3 10 and 30 mg/kg, MO-00005 10, 30 and 100 mg/kg, vs vehicle
# T1 sequence (P10635 whole entry): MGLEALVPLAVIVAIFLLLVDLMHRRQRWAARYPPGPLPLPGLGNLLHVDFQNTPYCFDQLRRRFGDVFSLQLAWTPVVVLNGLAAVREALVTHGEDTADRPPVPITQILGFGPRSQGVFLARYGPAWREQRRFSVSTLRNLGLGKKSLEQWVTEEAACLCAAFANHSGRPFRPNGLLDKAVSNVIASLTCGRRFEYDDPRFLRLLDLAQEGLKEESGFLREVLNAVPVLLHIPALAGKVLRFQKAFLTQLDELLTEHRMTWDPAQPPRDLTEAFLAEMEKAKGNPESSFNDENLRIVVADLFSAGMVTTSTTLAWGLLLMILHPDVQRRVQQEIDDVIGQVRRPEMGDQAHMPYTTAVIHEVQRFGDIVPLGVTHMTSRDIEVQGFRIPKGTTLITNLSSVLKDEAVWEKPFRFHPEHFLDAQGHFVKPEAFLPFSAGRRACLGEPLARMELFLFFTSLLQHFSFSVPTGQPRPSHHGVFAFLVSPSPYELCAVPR
compound,measurement,setting,value
"COc1cc2c(cc1OC)CN(C(=O)/C=C/c1c(-c3ccccc3)n(C)c3ncccc13)CC2.Cl [SIS3, reference compound]",Body weight (g) Mean,"[1]; 10 mg/kg q.d. * 3W i.p., Day 1",16.72 g
same,Body weight (g) Mean,"[1]; 10 mg/kg q.d. * 3W i.p., Day 4",16.64 g
same,Body weight (g) Mean,"[1]; 10 mg/kg q.d. * 3W i.p., Day 5",16.55 g
same,Body weight (g) Mean,"[1]; 10 mg/kg q.d. * 3W i.p., Day 6",16.50 g
same,Body weight (g) Mean,"[1]; 10 mg/kg q.d. * 3W i.p., Day 8",16.83 g
same,Body weight (g) Mean,[1]; [3],17.53 g
same,Body weight (g) Mean,[1]; [4],17.84 g
same,Body weight (g) Mean,[1]; [5],19.04 g
same,Body weight (g) Mean,[1]; [6],20.77 g
same,Body weight (g) Mean,"[1]; 30 mg/kg q.d. * 3W i.p., Day 1",16.72 g
same,Body weight (g) Mean,"[1]; 30 mg/kg q.d. * 3W i.p., Day 4",16.66 g
same,Body weight (g) Mean,"[1]; 30 mg/kg q.d. * 3W i.p., Day 5",16.55 g
same,Body weight (g) Mean,"[1]; 30 mg/kg q.d. * 3W i.p., Day 6",16.59 g
same,Body weight (g) Mean,"[1]; 30 mg/kg q.d. * 3W i.p., Day 8",16.69 g
same,Body weight (g) Mean,[1]; [7],17.30 g
same,Body weight (g) Mean,[1]; [8],17.53 g
same,Body weight (g) Mean,[1]; [9],18.45 g
same,Body weight (g) Mean,[1]; [10],20.70 g
same,Tumor Sizes (mm3) Mean,"B16-F10 syngeneic model; 10 mg/kg q.d. * 3W i.p., Day 4 (estimated value)",0.87 mm3
same,Relative tumor volume Mean,"B16-F10 syngeneic model; 10 mg/kg q.d. * 3W i.p., Day 4, RTV=Vt/V0",0.04
same,Tumor Sizes (mm3) Mean,"B16-F10 syngeneic model; 10 mg/kg q.d. * 3W i.p., Day 5 (estimated value)",1.10 mm3 and 1.1 mm3
same,Relative tumor volume Mean,"B16-F10 syngeneic model; 10 mg/kg q.d. * 3W i.p., Day 5, RTV=Vt/V0",0.05
same,Tumor Sizes (mm3) Mean,"B16-F10 syngeneic model; 10 mg/kg q.d. * 3W i.p., Day 6 (estimated value)",3.36 mm3
same,Relative tumor volume Mean,"B16-F10 syngeneic model; 10 mg/kg q.d. * 3W i.p., Day 6, RTV=Vt/V0",0.12
same,Tumor Sizes (mm3) Mean,"B16-F10 syngeneic model; 10 mg/kg q.d. * 3W i.p., Day 8",43.65 mm3
same,Relative tumor volume Mean,"B16-F10 syngeneic model; 10 mg/kg q.d. * 3W i.p., Day 8, RTV=Vt/V0",1.00
same,Tumor Sizes (mm3) Mean,B16-F10 syngeneic model; [3],156.77 mm3
same,Relative tumor volume Mean,"B16-F10 syngeneic model; 10 mg/kg q.d. * 3W i.p., Day 11, RTV=Vt/V0",4.07
same,Tumor growth inhibition (%) TGI,"B16-F10 syngeneic model; 10 mg/kg q.d. * 3W i.p., Day 11, calculated based on tumor volume of Day 8",29%
same,Tumor Sizes (mm3) Mean,B16-F10 syngeneic model; [4],443.17 mm3
same,Relative tumor volume Mean,"B16-F10 syngeneic model; 10 mg/kg q.d. * 3W i.p., Day 13, RTV=Vt/V0",12.20
same,Tumor growth inhibition (%) TGI,"B16-F10 syngeneic model; 10 mg/kg q.d. * 3W i.p., Day 13, calculated based on tumor volume of Day 8",26%
same,Tumor Sizes (mm3) Mean,B16-F10 syngeneic model; [5],793.01 mm3
same,Relative tumor volume Mean,"B16-F10 syngeneic model; 10 mg/kg q.d. * 3W i.p., Day 15, RTV=Vt/V0",22.19
same,Tumor growth inhibition (%) TGI,"B16-F10 syngeneic model; 10 mg/kg q.d. * 3W i.p., Day 15, calculated based on tumor volume of Day 8",25%
same,Tumor Sizes (mm3) Mean,B16-F10 syngeneic model; [6],2209.13 mm3
same,Relative tumor volume Mean,"B16-F10 syngeneic model; 10 mg/kg q.d. * 3W i.p., Day 18, RTV=Vt/V0",62.21
same,Tumor growth inhibition (%) TGI,"B16-F10 syngeneic model; 10 mg/kg q.d. * 3W i.p., Day 18, calculated based on tumor volume of Day 8",21%
same,Tumor Sizes (mm3) Mean,"B16-F10 syngeneic model; 30 mg/kg q.d. * 3W i.p., Day 4 (estimated value)",0.28 mm3
same,Relative tumor volume Mean,"B16-F10 syngeneic model; 30 mg/kg q.d. * 3W i.p., Day 4, RTV=Vt/V0",0.01
same,Tumor Sizes (mm3) Mean,"B16-F10 syngeneic model; 30 mg/kg q.d. * 3W i.p., Day 5 (estimated value)",0.46 mm3
same,Relative tumor volume Mean,"B16-F10 syngeneic model; 30 mg/kg q.d. * 3W i.p., Day 5, RTV=Vt/V0",0.01
same,Tumor Sizes (mm3) Mean,"B16-F10 syngeneic model; 30 mg/kg q.d. * 3W i.p., Day 6 (estimated value)",3.44 mm3
same,Relative tumor volume Mean,"B16-F10 syngeneic model; 30 mg/kg q.d. * 3W i.p., Day 6, RTV=Vt/V0",0.12
same,Tumor Sizes (mm3) Mean,"B16-F10 syngeneic model; 30 mg/kg q.d. * 3W i.p., Day 8",49.16 mm3
same,Relative tumor volume Mean,"B16-F10 syngeneic model; 30 mg/kg q.d. * 3W i.p., Day 8, RTV=Vt/V0",1.00
same,Tumor Sizes (mm3) Mean,B16-F10 syngeneic model; [7],163.60 mm3 and 163.6 mm3
same,Relative tumor volume Mean,"B16-F10 syngeneic model; 30 mg/kg q.d. * 3W i.p., Day 11, RTV=Vt/V0",3.98
same,Tumor growth inhibition (%) TGI,"B16-F10 syngeneic model; 30 mg/kg q.d. * 3W i.p., Day 11, calculated based on tumor volume of Day 8",28%
same,Tumor Sizes (mm3) Mean,B16-F10 syngeneic model; [8],379.84 mm3
same,Relative tumor volume Mean,"B16-F10 syngeneic model; 30 mg/kg q.d. * 3W i.p., Day 13, RTV=Vt/V0",9.22
same,Tumor Sizes (mm3) Mean,B16-F10 syngeneic model; [9],786.37 mm3
same,Relative tumor volume Mean,"B16-F10 syngeneic model; 30 mg/kg q.d. * 3W i.p., Day 15, RTV=Vt/V0",23.71
same,Tumor Sizes (mm3) Mean,B16-F10 syngeneic model; [10],2131.42 mm3
same,Relative tumor volume Mean,"B16-F10 syngeneic model; 30 mg/kg q.d. * 3W i.p., Day 18, RTV=Vt/V0",70.14
same,anti-tumor activity against the B16-F10 syngeneic model (in words),B16-F10 syngeneic model; [11],anti-tumor response; also recorded: significant anti-tumor activity
same,efficacy on tumor weight (in words),B16-F10 syngeneic model; [11],significant efficacy on tumor weight
same,"Conc. Of Sample (ug/mL), aqueous solubility",[2]; pH 4.03 buffer,17.2 µg/mL
same,"Conc. Of Sample (ug/mL), aqueous solubility",[2]; pH 7.70 buffer,7.0 µg/mL
same,"Conc. Of Sample (ug/mL), aqueous solubility",[2]; unbuffered water,17.7 µg/mL
same,"CYP2D6 inhibition (HLM, dextromethorphan substrate) Inhibition (%)",CYP2D6,19.1641%
